Laboratory results reported in US7348425B2, “Inhibitors of HCV replication” (Bristol-Myers Squibb Company, priority 2004, dated 2008).
Read-outs that look alike come from different tables or passages of the source.

Assays:
[1] = target: T1, HCV NS5B RdRp genotype 1b (Hepatitis C virus genotype 1b, UniProt Q9WMX2); assay: Modified HCV NS5B RdRp enzyme assay (with preincubation); format: biochemical
T1 construct: The protein was expressed with an 18 amino acid C-terminal truncation to enhance the solubility; made in house; host or cells: E. coli BL21 (DE3), pET21a
How it was run: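 Seven-point IC50s were derived from SPA-based ³H-UTP incorporation after 4 h at 30 °C (Hepes pH 7.5, 2% DMSO). Compound was first mixed with 14 nM Δ18 NS5B genotype 1b enzyme. Then 0.2 nM polyA, 0.29 μM UTP and bead-bound oligo-dT12 (20 nM) were added.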

HCV replicon = HCV replicon FRET assay; format: cell-based; settings: Hepatitis C virus
How it was run: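 Replicon cells (± Renilla luciferase reporter) incubated with titrated compound at 37 °C; NS3 protease activity read by FRET peptide cleavage (20 uM EDANS/DABCYL substrate, 340/490 nm kinetic) or luciferase.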

[2] = modified method (with preincubation)

T1 sequence (Q9WMX2 2420-2992): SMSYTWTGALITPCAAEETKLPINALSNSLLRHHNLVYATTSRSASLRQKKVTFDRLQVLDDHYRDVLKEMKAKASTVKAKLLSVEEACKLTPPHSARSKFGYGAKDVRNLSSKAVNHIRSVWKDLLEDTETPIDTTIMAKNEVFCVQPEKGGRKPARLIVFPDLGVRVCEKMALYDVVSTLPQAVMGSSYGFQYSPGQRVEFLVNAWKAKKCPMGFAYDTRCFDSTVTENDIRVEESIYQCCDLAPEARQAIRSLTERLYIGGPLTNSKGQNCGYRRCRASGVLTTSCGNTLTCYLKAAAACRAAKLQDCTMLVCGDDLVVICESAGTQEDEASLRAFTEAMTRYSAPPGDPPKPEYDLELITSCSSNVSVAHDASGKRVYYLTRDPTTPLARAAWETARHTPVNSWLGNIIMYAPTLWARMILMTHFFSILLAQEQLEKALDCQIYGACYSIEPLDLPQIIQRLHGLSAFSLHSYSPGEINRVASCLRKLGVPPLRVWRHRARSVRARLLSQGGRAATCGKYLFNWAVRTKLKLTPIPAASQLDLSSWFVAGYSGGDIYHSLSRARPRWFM

Row | SMILES | IC50 [1, 2] | EC50 (HCV replicon; FRET assay, read-out: EC50) | IC50 ([1]; preincubation protocol) | EC50 (HCV replicon)
1 | COC(=O)c1ccc(CN(C)S(=O)(=O)NC(=O)c2ccc3c(C4CCCCC4)c4n(c3c2)CC(=O)Nc2ccccc2-4)cc1 | 20 to 1000 nM | 10 to 1000 nM |  | 
2 | NC(=O)C1(NC(=O)c2ccc3c(C4CCCCC4)c4n(c3c2)CC(=O)Nc2ccccc2-4)CCCC1 | 20 to 1000 nM | 10 to 1000 nM |  | 
3 | CN(C)S(=O)(=O)NC(=O)c1ccc2c(C3CCCCC3)c3n(c2c1)CCCN(C(=O)OC(C)(C)C)c1ccccc1-3 |  | 50 to 1000 nM | 10 to 1000 nM | 
4 | CN(CC(O)CO)C(=O)C1=Cc2ccccc2-c2c(C3CCCCC3)c3ccc(C(=O)NS(=O)(=O)N(C)C)cc3n2C1 (centres unmarked) | 20 to 1000 nM | 10 to 1000 nM |  | 
5 | CN(C)S(=O)(=O)NC(=O)c1ccc2c(C3CCCCC3)c3n(c2c1)C[C@@H](O)[C@@H](O)c1ncccc1-3 | 20 to 1000 nM | > 10000 nM |  | 
6 | CN(C)S(=O)(=O)NC(=O)c1ccc2c(C3CCCCC3)c3n(c2c1)CCNc1ccccc1-3 | 20 to 1000 nM | 10 to 1000 nM |  | 
7 | COC(=O)c1ccc2c(C3CCCCC3)c3n(c2c1)CC(C(=O)N1CCCOCC1)=Cc1ccccc1-3 | > 1000 nM | 1000 to 10000 nM |  | 
8 | COC(=O)c1ccc2c(c1)CCN(S(=O)(=O)NC(=O)c1ccc3c(C4CCCCC4)c4n(c3c1)CC(=O)Nc1ccccc1-4)C2 | 20 to 1000 nM | 1000 to 10000 nM |  | 
9 | CCN(C)S(=O)(=O)NC(=O)c1ccc2c(C3CCCCC3)c3n(c2c1)CC(C(=O)N1CCOCC1)=Cc1ccccc1-3 | 20 to 1000 nM | 10 to 1000 nM |  | 
10 | CN(C)S(=O)(=O)NC(=O)c1ccc2c(C3CCCCC3)c3n(c2c1)CC(C(=O)N1CCOCC1)=Cc1ccc(Cl)cc1-3 | 20 to 1000 nM | 1000 to 10000 nM |  | 
11 | O=C(NS(=O)(=O)Cc1ccccc1)c1ccc2c(C3CCCCC3)c3n(c2c1)CCCc1ncccc1-3 | 20 to 1000 nM | 1000 to 10000 nM |  | 
12 | COC(=O)c1ccc2c(C3CCCCC3)c3n(c2c1)CC(C(=O)O)=C(C)c1ccccc1-3 | > 1000 nM | 1000 to 10000 nM |  | 
13 | COc1ccc2c(c1)C=C(C(=O)N1CC[C@@H](O)C1)Cn1c-2c(C2CCCCC2)c2ccc(C(=O)NS(=O)(=O)N(C)C)cc21 |  | 50 to 1000 nM | 10 to 1000 nM | 
14 | CNCCNC(=O)c1ccc2c(C3CCCCC3)c3n(c2c1)CC(C(=O)N1C[C@@H](C)O[C@@H](C)C1)=Cc1ccccc1-3 |  | 50 to 1000 nM | 10 to 1000 nM | 
15 | O=C(NS(=O)(=O)c1ccccc1)c1ccc2c(C3CCCCC3)c3n(c2c1)C[C@@H](O)[C@@H](O)c1ncccc1-3 | 20 to 1000 nM | 1000 to 10000 nM |  | 
16 | c1cnc2c(c1)-c1c(C3CCCCC3)c3ccc(-c4nnn[nH]4)cc3n1CCC2 | 20 to 1000 nM | 1000 to 10000 nM |  | 

Row | SMILES | IC50 [1, 2] | EC50 (HCV replicon; FRET assay, read-out: EC50) | IC50 ([1]; preincubation protocol) | EC50 (HCV replicon)
17 | O=C(NS(=O)(=O)C1CC1)c1ccc2c(C3CCCCC3)c3n(c2c1)CC(C(=O)N1CCOCC1)Cc1ccccc1-3 (centres unmarked) [drawing 287] | 20 to 1000 nM | 10 to 1000 nM |  | 
18 | COc1ccc2c(c1)C=C(C(=O)N1CCOCC1)Cn1c-2c(C2CCCCC2)c2ccc(C(=O)NS(=O)(=O)N(C)C)cc21 | 20 to 1000 nM |  |  | 10 to 1000 nM
19 | CC(C)S(=O)(=O)NC(=O)c1ccc2c(C3CCCCC3)c3n(c2c1)CC(C(=O)N1CCOCC1)Cc1ccccc1-3 (centres unmarked) | 20 to 1000 nM | 10 to 1000 nM |  | 
20 | CCOC(=O)c1cc2cc(NC(=O)C3(NC(=O)c4ccc5c(C6CCCCC6)c6n(c5c4)CC(=O)Nc4ccccc4-6)CCCC3)ccc2n1C | 20 to 1000 nM | 10 to 1000 nM |  | 
21 | CC(C)(C)OC(=O)N1C/C=C\Cn2c(c(C3CCCCC3)c3ccc(C(=O)O)cc32)-c2cnccc21 | > 1000 nM | > 10000 nM |  | 
22 | O=C(O)c1ccc2c(C3CCCCC3)c3n(c2c1)C[C@@H](O)[C@@H](O)c1ccccc1-3 | 20 to 1000 nM | 1000 to 10000 nM |  | 
23 | NC(=O)C1Cc2ccccc2-c2c(C3CCCCC3)c3ccc(C(=O)NC4(C(=O)Nc5ccc(/C=C/C(=O)O)cc5)CCCC4)cc3n2C1 (centres unmarked) | 20 to 1000 nM | 10 to 1000 nM |  | 
24 | COC(=O)/C=C/c1ccc(NC(=O)C2(NC(=O)c3ccc4c(C5CCCCC5)c5c6ccccc6ncn5c4c3)CCCC2)cc1 | > 1000 nM | 1000 to 10000 nM |  | 
25 | COc1ccc2c(c1)C=C(C(=O)N1[C@H](C)CC[C@H]1C)Cn1c-2c(C2CCCCC2)c2ccc(C(=O)NS(=O)(=O)N(C)C)cc21 |  | 50 to 1000 nM | 10 to 1000 nM | 
26 | COC(=O)C1=C(C)c2ccccc2-c2c(C3CCCCC3)c3ccc(C(=O)OC)cc3n2C1 | > 1000 nM | 10 to 1000 nM |  | 
27 | O=C(c1ccc2c(C3CCCCC3)c3n(c2c1)CC(C(=O)N1CCOCC1)Cc1ccccc1-3)N1CCOCC1 (centres unmarked) | > 1000 nM | 10 to 1000 nM |  | 
28 | CN1C(=O)Cn2c(c(C3CCCCC3)c3ccc(C(=O)NC4(C(=O)Nc5ccc6c(c5)cc(C(=O)O)n6C)CCCC4)cc32)-c2ccccc21 | 20 to 1000 nM | 10 to 1000 nM |  | 
29 | O=C(O)c1ccc2c(C3CCCCC3)c3n(c2c1)CCN(C(=O)NC1CCCC1)c1ccccc1-3 | 20 to 1000 nM | 10 to 1000 nM |  | 
30 | CN(C)S(=O)(=O)NC(=O)c1ccc2c(C3CCCCC3)c3n(c2c1)CC(O)Cc1ccccc1-3 (centres unmarked) | 20 to 1000 nM | 10 to 1000 nM |  | 
31 | O=C(O)c1ccc2c(C3CCCCC3)c3n(c2c1)CNc1ccccc1-3 | 20 to 1000 nM | 10 to 1000 nM |  | 
